In the NIST ThermoML archive (doi:10.1007/s10765-007-0223-x):
± gives the expanded uncertainty stated by the source.

Assay: xn = mol fraction of the nth substance listed
Settings: 101 kPa, Liquid; for speed of sound: Single path-length method

COC(C)(C)C [2-methoxy-2-methylpropane] + c1ccccc1
Settings | mass density [kg/m3] | speed of sound [m/s]
288.15 K, x1 = 0.052 | 874.712 ± 0.4 | 1328.4 ± 2.1
288.15 K, x1 = 0.111 | 864.515 ± 0.41 | 1309.5 ± 2.1
288.15 K, x1 = 0.202 | 849.416 ± 0.43 | 1281.7 ± 2.1
288.15 K, x1 = 0.303 | 833.719 ± 0.45 | 1252.5 ± 2.1
288.15 K, x1 = 0.397 | 819.912 ± 0.46 | 1226.5 ± 2.1
288.15 K, x1 = 0.5 | 805.496 ± 0.48 | 1199.1 ± 2.1
288.15 K, x1 = 0.596 | 792.712 ± 0.5 | 1174.8 ± 2.1
288.15 K, x1 = 0.698 | 779.712 ± 0.52 | 1149.4 ± 2.1
288.15 K, x1 = 0.791 | 768.503 ± 0.53 | 1128.2 ± 2.1
288.15 K, x1 = 0.902 | 755.682 ± 0.55 | 1103 ± 2.1
288.15 K, x1 = 0.95 | 750.294 ± 0.56 | 1092.4 ± 2.1
288.15 K, x1 = 1 | 744.861 ± 0.55 | 1083.4 ± 2.1
290.65 K, x1 = 0.052 | 872.067 ± 0.41 | 1316.5 ± 2.1
290.65 K, x1 = 0.111 | 861.888 ± 0.41 | 1297.5 ± 2.1
290.65 K, x1 = 0.202 | 846.799 ± 0.43 | 1269.6 ± 2.1
290.65 K, x1 = 0.303 | 831.129 ± 0.45 | 1240.5 ± 2.1
290.65 K, x1 = 0.397 | 817.328 ± 0.47 | 1214.4 ± 2.1
290.65 K, x1 = 0.5 | 802.92 ± 0.49 | 1187.2 ± 2.1
290.65 K, x1 = 0.596 | 790.137 ± 0.5 | 1163 ± 2.1
290.65 K, x1 = 0.698 | 777.135 ± 0.52 | 1137.7 ± 2.1
290.65 K, x1 = 0.791 | 765.921 ± 0.53 | 1116.4 ± 2.1
290.65 K, x1 = 0.902 | 753.094 ± 0.55 | 1091.2 ± 2.1
290.65 K, x1 = 0.95 | 747.701 ± 0.56 | 1080.6 ± 2.1
290.65 K, x1 = 1 | 742.259 ± 0.56 | 1071.6 ± 2.1
293.15 K, x1 = 0.052 | 869.419 ± 0.41 | 1304.8 ± 2.1
293.15 K, x1 = 0.111 | 859.259 ± 0.42 | 1285.9 ± 2.1
293.15 K, x1 = 0.202 | 844.19 ± 0.44 | 1258 ± 2.1
293.15 K, x1 = 0.303 | 828.533 ± 0.45 | 1228.9 ± 2.1
293.15 K, x1 = 0.397 | 814.742 ± 0.47 | 1202.9 ± 2.1
293.15 K, x1 = 0.5 | 800.338 ± 0.49 | 1175.6 ± 2.1
293.15 K, x1 = 0.596 | 787.557 ± 0.51 | 1151.4 ± 2.1
293.15 K, x1 = 0.698 | 774.552 ± 0.52 | 1126.2 ± 2.1
293.15 K, x1 = 0.791 | 763.334 ± 0.54 | 1104.8 ± 2.1
293.15 K, x1 = 0.902 | 750.497 ± 0.56 | 1079.6 ± 2.1
293.15 K, x1 = 0.95 | 745.1 ± 0.56 | 1069 ± 2.1
293.15 K, x1 = 1 | 739.654 ± 0.56 | 1060 ± 2.1
295.65 K, x1 = 0.052 | 866.766 ± 0.41 | 1293 ± 2.1
295.65 K, x1 = 0.111 | 856.624 ± 0.42 | 1274.2 ± 2.1
295.65 K, x1 = 0.202 | 841.573 ± 0.44 | 1246.3 ± 2.1
295.65 K, x1 = 0.303 | 825.932 ± 0.46 | 1217.3 ± 2.1
295.65 K, x1 = 0.397 | 812.151 ± 0.47 | 1191.3 ± 2.1
295.65 K, x1 = 0.5 | 797.75 ± 0.49 | 1164 ± 2.1
295.65 K, x1 = 0.596 | 784.966 ± 0.51 | 1139.8 ± 2.1
295.65 K, x1 = 0.698 | 771.959 ± 0.53 | 1114.6 ± 2.1
295.65 K, x1 = 0.791 | 760.733 ± 0.54 | 1093.1 ± 2.1
295.65 K, x1 = 0.902 | 747.886 ± 0.56 | 1067.9 ± 2.1
295.65 K, x1 = 0.95 | 742.485 ± 0.57 | 1057.2 ± 2.1
295.65 K, x1 = 1 | 737.036 ± 0.56 | 1048.5 ± 2.1
298.15 K, x1 = 0.052 | 864.111 ± 0.41 | 1281.3 ± 2.1
298.15 K, x1 = 0.111 | 853.986 ± 0.42 | 1262.6 ± 2.1
298.15 K, x1 = 0.202 | 838.954 ± 0.44 | 1234.8 ± 2.1
298.15 K, x1 = 0.303 | 823.323 ± 0.46 | 1205.8 ± 2.1
298.15 K, x1 = 0.397 | 809.552 ± 0.48 | 1179.8 ± 2.1
298.15 K, x1 = 0.5 | 795.155 ± 0.5 | 1152.5 ± 2.1
298.15 K, x1 = 0.596 | 782.366 ± 0.51 | 1128.2 ± 2.1
298.15 K, x1 = 0.698 | 769.356 ± 0.53 | 1103 ± 2.1
298.15 K, x1 = 0.791 | 758.126 ± 0.55 | 1081.5 ± 2.1
298.15 K, x1 = 0.902 | 745.267 ± 0.56 | 1056.2 ± 2.1
298.15 K, x1 = 0.95 | 739.86 ± 0.57 | 1045.5 ± 2.1
298.15 K, x1 = 1 | 734.406 ± 0.57 | 1036.9 ± 2.1
300.65 K, x1 = 0.052 | 861.451 ± 0.42 | 1269.7 ± 2.1
300.65 K, x1 = 0.111 | 851.345 ± 0.43 | 1251 ± 2.1
300.65 K, x1 = 0.202 | 836.329 ± 0.45 | 1223.2 ± 2.1
300.65 K, x1 = 0.303 | 820.71 ± 0.47 | 1194.3 ± 2.1
300.65 K, x1 = 0.397 | 806.945 ± 0.48 | 1168.3 ± 2.1
300.65 K, x1 = 0.5 | 792.548 ± 0.5 | 1141 ± 2.1
300.65 K, x1 = 0.596 | 779.76 ± 0.52 | 1116.7 ± 2.1
300.65 K, x1 = 0.698 | 766.742 ± 0.53 | 1091.5 ± 2.1
300.65 K, x1 = 0.791 | 755.506 ± 0.55 | 1070 ± 2.1
300.65 K, x1 = 0.902 | 742.638 ± 0.57 | 1044.7 ± 2.1
300.65 K, x1 = 0.95 | 737.224 ± 0.57 | 1033.8 ± 2.1
300.65 K, x1 = 1 | 731.766 ± 0.57 | 1025.4 ± 2.1
303.15 K, x1 = 0.052 | 858.785 ± 0.42 | 1258 ± 2.1
303.15 K, x1 = 0.111 | 848.697 ± 0.43 | 1239.5 ± 2.1
303.15 K, x1 = 0.202 | 833.698 ± 0.45 | 1211.7 ± 2.1
303.15 K, x1 = 0.303 | 818.089 ± 0.47 | 1182.8 ± 2.1
303.15 K, x1 = 0.397 | 804.33 ± 0.49 | 1156.9 ± 2.1
303.15 K, x1 = 0.5 | 789.936 ± 0.5 | 1129.6 ± 2.1
303.15 K, x1 = 0.596 | 777.144 ± 0.52 | 1105.2 ± 2.1
303.15 K, x1 = 0.698 | 764.119 ± 0.54 | 1080 ± 2.1
303.15 K, x1 = 0.791 | 752.877 ± 0.55 | 1058.5 ± 2.1
303.15 K, x1 = 0.902 | 739.994 ± 0.57 | 1033.2 ± 2.1
303.15 K, x1 = 0.95 | 734.576 ± 0.58 | 1022.3 ± 2.1
303.15 K, x1 = 1 | 729.112 ± 0.58 | 1013.9 ± 2.1
305.65 K, x1 = 0.052 | – | 1246.5 ± 2.1
305.65 K, x1 = 0.111 | – | 1228 ± 2.1
305.65 K, x1 = 0.202 | – | 1200.3 ± 2.1
305.65 K, x1 = 0.303 | – | 1171.4 ± 2.1
305.65 K, x1 = 0.397 | – | 1145.5 ± 2.1
305.65 K, x1 = 0.5 | – | 1118.2 ± 2.1
305.65 K, x1 = 0.596 | – | 1093.8 ± 2.1
305.65 K, x1 = 0.698 | – | 1068.6 ± 2.1
